Assay results taken from patent publication US8653278B2, “Isoform selective HDAC inhibitors” (Georgetown University, priority 2006, dated 2014).
pIC50: −log10 of the molar value. Entries after “also recorded” stand apart in the source; their conditions may differ. Like-named read-outs stand apart in the source and are kept apart here.

Legend:
HDAC [1] = tested on: T1, HDAC; assay: in vitro HDAC inhibitory activity, HDAC Fluor-Lys as substrate (BIOMOL); type: biochemical; settings: for pIC50: read-out: IC50, concentration required to achieve 50% inhibition of HDAC activity
T1 construct: other: HDAC Fluor-Lys substrate; other: at concentrations of 1 μM
Experimental: The in vitro HDAC inhibitory activity of the synthesized compounds was determined by using HDAC Fluor-Lys as the substrate (BIOMOL). […] SAHA was used as a positive control.

[2] = tested on: human normal fibroblasts (NHP-5); assay: growth inhibition of normal cells NHP-5; type: cell-based; settings: Fibroblast
Experimental: (§1) One of characteristics of the HDAC inhibitors relates to their ability to inhibit the growth of transformed cells. The compounds capable of modifying histones in the cell were tested for their biological effects.

[3] = tested on: human normal primary skin fibroblasts (Hs-68); assay: growth inhibition of normal cells Hs-68; type: cell-based; settings: Hs68
Experimental: as §1

HDAC 1, 2, 3 and HDAC8 = assay: class I HDAC isoform panel, comparison across isoforms; type: biochemical; settings: 0.5 μM of the test compound; HDAC 1, 2, 3, 8
From the text: (§2) FIG. 10 depicts the effect of HDAC inhibitors, including selected compounds of the invention, on Class I HDAC isoform activities. Note that (a) denotes that HeLa nuclear extracts were used for immunoprecipitation (IP) with antibodies against HDAC 1-3; and (b) denotes that recombinant protein was used for HDAC 8.

HDAC [4] = settings: read-out: reported IC50; literature value; cited from earlier work
Plasmodium falciparum = settings: human malaria parasite Plasmodium falciparum; cited from earlier work
[5] = tested on: prostate cancer (PC-3), breast cancer (MCF-7), cervical cancer (HeLa), squamous carcinoma (SQ-20B); assay: antiproliferative activity in cancer cell lines; type: cell-based; settings: PC-3, MCF-7, HeLa
Experimental: as §1

HDAC1 = biological target: T2, HDAC1 (Homo sapiens, UniProt Q13547); assay: class I HDAC isoform activity, immunoprecipitate from HeLa nuclear extracts; type: biochemical; settings: 0.5 μM of the test compound
T2 construct: endogenous in cells; host or cells: HeLa nuclear extract, immunoprecipitate
T2 sequence (Q13547 whole entry, canonical isoform): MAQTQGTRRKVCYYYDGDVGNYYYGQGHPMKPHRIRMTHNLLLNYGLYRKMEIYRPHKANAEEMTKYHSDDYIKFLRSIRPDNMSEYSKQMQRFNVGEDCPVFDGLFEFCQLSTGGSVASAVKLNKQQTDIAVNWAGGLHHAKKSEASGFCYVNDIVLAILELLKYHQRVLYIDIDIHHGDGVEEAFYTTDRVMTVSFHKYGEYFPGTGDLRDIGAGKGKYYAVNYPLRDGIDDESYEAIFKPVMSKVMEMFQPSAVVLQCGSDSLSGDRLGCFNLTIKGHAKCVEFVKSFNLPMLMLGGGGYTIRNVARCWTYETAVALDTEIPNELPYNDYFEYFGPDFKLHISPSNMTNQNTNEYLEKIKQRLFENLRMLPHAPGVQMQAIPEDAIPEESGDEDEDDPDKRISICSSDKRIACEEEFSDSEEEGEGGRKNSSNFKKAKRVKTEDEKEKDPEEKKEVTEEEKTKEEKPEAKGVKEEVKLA
From the text: as §2, with “8. Note: TSA is trichostatin A.” for “8.”
(§3) To test whether the modified CAP region of the HDACIs is able to target specific HDAC isoform enzyme activity, the compounds were examined for class I HDAC isoform inhibitory activities using recombinant HDAC8 and immunoprecipitates of the other HDAC isoforms (HDAC 1, 2, 3) using nuclear extracts from HeLa cells. […] The data shown in FIG. 10 represent the HDAC inhibitory activity remaining after addition of 0.5 μM of the test compounds.

HDAC2 = biological target: T3, HDAC2 (Homo sapiens, UniProt Q92769); assay: as above; type: biochemical; settings: 0.5 μM of the test compound
T3 construct: endogenous in cells; host or cells: HeLa nuclear extract, immunoprecipitate
T3 sequence (Q92769 whole entry): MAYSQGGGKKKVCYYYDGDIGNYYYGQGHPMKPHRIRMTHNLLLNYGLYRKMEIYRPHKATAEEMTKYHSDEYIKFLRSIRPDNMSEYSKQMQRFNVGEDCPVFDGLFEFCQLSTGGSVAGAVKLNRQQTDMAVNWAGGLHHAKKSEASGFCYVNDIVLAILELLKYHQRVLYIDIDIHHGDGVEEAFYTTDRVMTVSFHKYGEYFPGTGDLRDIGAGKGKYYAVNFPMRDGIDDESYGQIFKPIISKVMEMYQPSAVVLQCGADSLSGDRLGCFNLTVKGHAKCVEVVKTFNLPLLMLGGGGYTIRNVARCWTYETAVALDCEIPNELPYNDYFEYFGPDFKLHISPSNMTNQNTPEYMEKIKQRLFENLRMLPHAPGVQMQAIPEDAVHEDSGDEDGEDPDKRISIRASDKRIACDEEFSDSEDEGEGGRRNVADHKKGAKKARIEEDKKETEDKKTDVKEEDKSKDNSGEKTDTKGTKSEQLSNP
From the text: as §2, with “8. Note: TSA is trichostatin A.” for “8.”
as §3

HDAC3 = biological target: T4, HDAC3 (Homo sapiens, UniProt O15379); assay: as above; type: biochemical; settings: after addition of 0.5 μM of the test compound
T4 construct: endogenous in cells; host or cells: HeLa nuclear extract, immunoprecipitate
T4 sequence (O15379 whole entry): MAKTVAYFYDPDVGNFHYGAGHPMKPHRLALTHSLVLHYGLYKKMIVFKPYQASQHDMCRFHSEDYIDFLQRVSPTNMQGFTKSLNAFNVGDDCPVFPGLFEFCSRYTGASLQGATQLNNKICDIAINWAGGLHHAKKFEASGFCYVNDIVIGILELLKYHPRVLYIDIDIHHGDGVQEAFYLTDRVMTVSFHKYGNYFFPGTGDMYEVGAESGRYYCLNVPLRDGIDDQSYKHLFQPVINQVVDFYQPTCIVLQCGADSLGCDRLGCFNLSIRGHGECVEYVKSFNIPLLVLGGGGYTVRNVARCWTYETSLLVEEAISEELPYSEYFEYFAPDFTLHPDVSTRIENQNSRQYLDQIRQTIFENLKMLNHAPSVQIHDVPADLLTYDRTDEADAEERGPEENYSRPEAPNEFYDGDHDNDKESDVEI
T4 sequence (Q9Y618 whole entry partner): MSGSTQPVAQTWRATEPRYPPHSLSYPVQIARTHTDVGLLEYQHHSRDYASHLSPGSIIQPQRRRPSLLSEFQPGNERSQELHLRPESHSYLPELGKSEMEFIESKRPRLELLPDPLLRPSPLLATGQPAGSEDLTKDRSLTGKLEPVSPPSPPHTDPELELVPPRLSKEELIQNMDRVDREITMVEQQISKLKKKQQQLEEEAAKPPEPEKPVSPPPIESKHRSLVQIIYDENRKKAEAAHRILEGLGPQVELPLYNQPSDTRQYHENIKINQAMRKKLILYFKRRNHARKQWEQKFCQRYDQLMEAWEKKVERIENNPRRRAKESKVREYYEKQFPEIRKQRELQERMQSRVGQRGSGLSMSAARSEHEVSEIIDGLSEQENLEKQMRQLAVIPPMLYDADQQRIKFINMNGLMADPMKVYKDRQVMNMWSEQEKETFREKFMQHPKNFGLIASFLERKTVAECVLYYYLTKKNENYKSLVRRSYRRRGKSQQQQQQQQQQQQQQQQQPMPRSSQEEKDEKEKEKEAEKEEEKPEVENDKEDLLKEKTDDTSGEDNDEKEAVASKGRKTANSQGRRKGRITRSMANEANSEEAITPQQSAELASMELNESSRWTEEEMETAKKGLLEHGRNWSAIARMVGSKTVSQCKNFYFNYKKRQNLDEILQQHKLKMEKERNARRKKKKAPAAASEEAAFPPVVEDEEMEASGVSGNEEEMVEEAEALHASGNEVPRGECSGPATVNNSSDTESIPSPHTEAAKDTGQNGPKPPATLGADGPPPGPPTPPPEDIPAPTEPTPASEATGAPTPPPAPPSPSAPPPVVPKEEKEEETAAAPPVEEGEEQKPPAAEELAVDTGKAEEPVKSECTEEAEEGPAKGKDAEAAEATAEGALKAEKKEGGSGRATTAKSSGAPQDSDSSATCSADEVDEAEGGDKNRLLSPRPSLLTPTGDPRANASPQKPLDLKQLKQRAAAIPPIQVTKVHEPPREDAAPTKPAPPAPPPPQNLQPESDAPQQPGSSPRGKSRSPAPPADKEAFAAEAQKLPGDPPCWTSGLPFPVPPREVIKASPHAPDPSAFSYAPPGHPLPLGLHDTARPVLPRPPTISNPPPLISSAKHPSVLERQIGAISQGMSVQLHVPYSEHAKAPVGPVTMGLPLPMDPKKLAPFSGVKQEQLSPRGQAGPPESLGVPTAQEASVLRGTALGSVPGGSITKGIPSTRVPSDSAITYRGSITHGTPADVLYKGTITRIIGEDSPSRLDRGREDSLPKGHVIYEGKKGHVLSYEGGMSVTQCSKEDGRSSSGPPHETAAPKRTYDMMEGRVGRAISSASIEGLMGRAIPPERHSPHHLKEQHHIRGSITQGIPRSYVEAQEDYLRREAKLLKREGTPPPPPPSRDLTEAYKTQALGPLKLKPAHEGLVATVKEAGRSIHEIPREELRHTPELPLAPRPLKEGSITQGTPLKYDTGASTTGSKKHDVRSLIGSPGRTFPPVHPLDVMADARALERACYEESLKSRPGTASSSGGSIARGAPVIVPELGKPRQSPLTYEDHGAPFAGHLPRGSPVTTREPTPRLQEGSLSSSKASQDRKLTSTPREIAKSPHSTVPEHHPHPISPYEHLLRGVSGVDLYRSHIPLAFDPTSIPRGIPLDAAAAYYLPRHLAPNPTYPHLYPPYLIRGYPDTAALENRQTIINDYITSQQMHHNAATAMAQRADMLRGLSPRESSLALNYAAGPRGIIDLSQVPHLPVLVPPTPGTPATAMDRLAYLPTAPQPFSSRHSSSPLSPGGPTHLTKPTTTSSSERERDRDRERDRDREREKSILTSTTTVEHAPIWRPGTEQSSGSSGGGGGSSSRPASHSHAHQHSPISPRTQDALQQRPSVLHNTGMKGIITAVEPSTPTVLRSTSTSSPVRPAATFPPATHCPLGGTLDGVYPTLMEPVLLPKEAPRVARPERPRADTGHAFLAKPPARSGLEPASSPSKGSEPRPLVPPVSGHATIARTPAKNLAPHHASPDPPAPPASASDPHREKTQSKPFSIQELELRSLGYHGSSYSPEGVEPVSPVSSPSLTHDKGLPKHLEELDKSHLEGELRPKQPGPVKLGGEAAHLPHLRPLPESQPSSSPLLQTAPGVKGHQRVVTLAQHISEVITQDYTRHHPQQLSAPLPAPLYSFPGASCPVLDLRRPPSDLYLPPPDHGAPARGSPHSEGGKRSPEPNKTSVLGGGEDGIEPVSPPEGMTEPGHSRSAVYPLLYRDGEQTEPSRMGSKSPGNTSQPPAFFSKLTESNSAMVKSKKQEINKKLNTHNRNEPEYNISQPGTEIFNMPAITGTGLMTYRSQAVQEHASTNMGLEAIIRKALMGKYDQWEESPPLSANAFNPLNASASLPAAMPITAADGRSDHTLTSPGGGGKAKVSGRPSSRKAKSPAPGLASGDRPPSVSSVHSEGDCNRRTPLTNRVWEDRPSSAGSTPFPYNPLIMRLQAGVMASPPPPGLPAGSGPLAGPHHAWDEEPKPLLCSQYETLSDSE
From the text: as §2, with “8. Note: TSA is trichostatin A.” for “8.”
as §3

HDAC8 = biological target: T5, HDAC8 (Homo sapiens, UniProt Q9BY41); assay: class I HDAC isoform activity, recombinant protein; type: biochemical; settings: after addition of 0.5 μM of the test compound
T5 sequence (Q9BY41 1-377): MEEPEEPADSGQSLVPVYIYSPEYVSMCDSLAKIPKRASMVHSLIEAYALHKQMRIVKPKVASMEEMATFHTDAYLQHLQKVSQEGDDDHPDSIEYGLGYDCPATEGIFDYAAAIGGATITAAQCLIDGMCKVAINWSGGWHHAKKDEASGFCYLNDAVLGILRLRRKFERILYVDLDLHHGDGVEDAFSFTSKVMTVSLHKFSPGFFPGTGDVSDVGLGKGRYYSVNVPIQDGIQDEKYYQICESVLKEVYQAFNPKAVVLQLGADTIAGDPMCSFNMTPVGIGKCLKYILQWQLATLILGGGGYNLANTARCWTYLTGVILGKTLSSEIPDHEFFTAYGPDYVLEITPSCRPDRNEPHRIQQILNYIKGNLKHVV
From the text: as §2, with “8. Note: TSA is trichostatin A.” for “8.”
as §3

[6] = tested on: mouse model of Huntington's disease; settings: cited from earlier work

**Q.** With `NCC(=O)Nc1ccccc1-c1ccc(NC(=O)CCCCCCC(=O)NO)cc1` [7a, octanedioic acid [2′-(2-amino-acetylamino)-biphenyl-4-yl]-amide hydroxyamide] as the molecule, how does the pIC50 (HDAC [1]; HDAC Fluor-Lys substrate) read?
**A.** 6.70

**Q.** What about the pIC50 [2] of the same molecule?
**A.** < 3.30

**Q.** And the pIC50 [3]?
**A.** < 3.30

**Q.** Which “class I HDAC isoform inhibitory activity and selectivity (in words)” value (HDAC 1, 2, 3 and HDAC8) does the source give for trichostatin A here?
**A.** more effective for inhibiting HDACs 1 and 2

**Q.** And the pIC50 (HDAC [4])?
**A.** 7.92

**Q.** For `O=C(CCCCCCC(=O)Nc1ccc(-c2ccccc2NC(=O)C2CCCN2)cc1)NO` (stereo not drawn) [7c, octanedioic acid hydroxyamide {2′-[(pyrrolidine-2-carbonyl)-amino]-biphenyl-4-yl}-amide], which “HDAC inhibitory activity (in words)” value (HDAC [1]; HDAC Fluor-Lys substrate) is on record?
**A.** approximately equipotent in their activity to SAHA

**Q.** For `COc1ccc(CCN(C)CCCC(C#N)(c2ccc(OC)c(OC)c2)C(C)C)cc1OC` (stereo not drawn) [Verapamil], which “reversal of chloroquine resistance” value (Plasmodium falciparum) is on record?
**A.** reverse chloroquine resistance

**Q.** With `NCC(=O)Nc1ccccc1-c1ccc(NC(=O)CCCCCNC(=O)CS)cc1` [10a, 6-(2-mercapto-acetylamino)-hexanoic acid [2′-(2-amino-acetylamino)-biphenyl-4-yl]-amide] as the molecule, how does the pIC50 (HDAC [1]) read?
**A.** 5.15

**Q.** What does the source list for `NC(Cc1c[nH]c2ccccc12)C(=O)Nc1ccccc1-c1ccc(NC(=O)CCCCCCC(=O)NO)cc1` (stereo not drawn) [7d, octanedioic acid {2′-[2-amino-3-(1H-indol-3-yl)-propionylamino]-biphenyl-4-yl}-amide hydroxyamide]?
**A.** pIC50 (HDAC [1]): 7.52; pIC50 [2]: 4.00

**Q.** What does the source list for `CCOC(=O)Nc1cccc(-c2csc(NC(=O)CCCCCCC(=O)NO)n2)c1` [compound 22, {3-[2-(7-hydroxycarbamoyl-heptanoylamino)-thiazol-4-yl]-phenyl}-carbamic acid ethyl ester]?
**A.** pIC50 (HDAC [1]; HDAC Fluor-Lys substrate): 8.30; potency relative to trichostatin A (HDAC [1]; IC50 compared with reported IC50 of trichostatin A): approximately two-fold; antiproliferative / growth inhibitory activity (in words) [5]: submicromolar activity; also recorded: impressive antiproliferative activity

**Q.** For `O=C(CCCCCCC(=O)Nc1nc(-c2cccc([N+](=O)[O-])c2)cs1)NO` [compound 19, octanedioic acid hydroxyamide [4-(3-Nitro-phenyl)-thiazol-2-yl]-amide], which “antiproliferative / growth inhibitory activity (in words)” value [5] is on record?
**A.** submicromolar activity

**Q.** And the “inhibition of HDAC1 activity (in words)” value (HDAC1)?
**A.** strong tendency to inhibit

**Q.** What about the “inhibition of HDAC2 activity (in words)” value (HDAC2) of the same molecule?
**A.** strong tendency to inhibit

**Q.** What about the remaining activity at 0.5 µM (HDAC3) of the same molecule?
**A.** > 30%

**Q.** And the remaining activity at 0.5 µM (HDAC8)?
**A.** > 30%

**Q.** With `Nc1ccccc1-c1csc(NC(=O)CCCCCCC(=O)NO)n1` [compound 16, octanedioic acid hydroxyamide [4-(2-amino-phenyl)-thiazol-2-yl]-amide] as the molecule, how does the “HDAC inhibitory activity (in words)” value (HDAC [1]; HDAC Fluor-Lys substrate) read?
**A.** poorly active

**Q.** With `NC(Cc1ccccc1)C(=O)Nc1ccccc1-c1ccc(NC(=O)CCCCCNC(=O)CS)cc1` (stereo not drawn) [10b, 6-(2-Mercapto-acetylamino)-hexanoic acid [2′-(2-amino-3-phenyl-propionylamino)-biphenyl-4-yl]-amide] as the molecule, how does the pIC50 (HDAC [1]) read?
**A.** 5.52

**Q.** With `O=C(CCCCCCC(=O)Nc1nc(-c2ccccc2[N+](=O)[O-])cs1)NO` [compound 17, octanedioic acid hydroxyamide [4-(2-nitro-phenyl)-thiazol-2-yl]-amide] as the molecule, how does the pIC50 (HDAC [1]; HDAC Fluor-Lys substrate) read?
**A.** 7.30

**Q.** With `Nc1cccc(-c2csc(NC(=O)CCCCCCC(=O)NO)n2)c1` [compound 23, octanedioic acid hydroxyamide [4-(3-amino-phenyl)-thiazol-2-yl]-amide] as the molecule, how does the pIC50 (HDAC [1]; HDAC Fluor-Lys substrate) read?
**A.** 8.10

**Q.** What about the “antiproliferative / growth inhibitory activity (in words)” value [5] of the same molecule?
**A.** submicromolar activity

**Q.** And the “inhibition of HDAC1 activity (in words)” value (HDAC1)?
**A.** strong tendency to inhibit

**Q.** And the “inhibition of HDAC2 activity (in words)” value (HDAC2)?
**A.** strong tendency to inhibit

**Q.** And the remaining activity at 0.5 µM (HDAC3)?
**A.** > 30%

**Q.** And the remaining activity at 0.5 µM (HDAC8)?
**A.** > 30%

**Q.** With `NC(Cc1ccc(O)cc1)C(=O)Nc1ccccc1-c1ccc(NC(=O)CCCCCCC(=O)NO)cc1` (stereo not drawn) [7e, octanedioic acid {2′-[2-amino-3-(4-hydroxy-phenyl)-propionylamino]-biphenyl-4-yl}-amide hydroxyamide] as the molecule, how does the pIC50 (HDAC [1]; HDAC Fluor-Lys substrate) read?
**A.** 7.30

**Q.** Which “HDAC inhibitory activity (in words)” value (HDAC [1]) does the source give for `NC(Cc1ccccc1)C(=O)Nc1ccccc1-c1ccc(NC(=O)CCCCCCC(=O)NO)cc1` (stereo not drawn) [7b, octanedioic acid [2′-(2-amino-3-phenyl-propionylamino)-biphenyl-4-yl]-amide hydroxyamide] here?
**A.** approximately equipotent in their activity to SAHA

**Q.** What about the “antiproliferative / growth inhibitory activity (in words)” value [5] of the same molecule?
**A.** good growth inhibitory activity

**Q.** What about the pIC50 [2] of the same molecule?
**A.** 4.10

**Q.** And the pIC50 [3]?
**A.** < 3.52

**Q.** Which “HDAC inhibitory activity at a fixed concentration (in words)” value (HDAC [1]) does the source give for `NC(Cc1c[nH]c2ccccc12)C(=O)Nc1ccccc1-c1ccc(NC(=O)CCCCCNC(=O)CS)cc1` (stereo not drawn) [10d, 6-(2-mercapto-acetylamino)-hexanoic acid {2′-[2-amino-3-(1H-indol-3-yl)-propionylamino]-biphenyl-4-yl}-amide] here?
**A.** inactive

**Q.** Which motor impairment ([6]; mouse model of Huntington's disease) does the source give for `O=C(CCCCCCC(=O)Nc1ccccc1)NO` [SAHA, suberoylanilide hydroxamic acid] here?
**A.** improve dramatically the motor impairment

**Q.** And the brain penetration ([6]; mouse, in vivo)?
**A.** penetrate into the brain

**Q.** With `NC(Cc1ccc(O)cc1)C(=O)Nc1ccccc1-c1ccc(NC(=O)CCCCCNC(=O)CS)cc1` (stereo not drawn) [10e, 6-(2-mercapto-acetylamino)-hexanoic acid {2′-[2-amino-3-(4-hydroxy-phenyl)-propionylamino]-biphenyl-4-yl}-amide] as the molecule, how does the “HDAC inhibitory activity at a fixed concentration (in words)” value (HDAC [1]; at concentrations of 1 μM) read?
**A.** inactive
